Tests used:
Format in all cases: cell-based, human
TFEB gene = assay: Real-time PCR of TFEB gene; details: HBEC-KL; 10 mM acetate 24 hours or 3 uM SAHA 15 hours
Method: At 72 hours after siRNA transfection (post-transfection) and 12 to 24 hours after chemical treatment, total RNA was isolated with the RNeasy miniprep kit (QIAGEN, 74134). After synthesizing complementary DNA (cDNA) using the TOPscript·8 cDNA synthesis kit (Enzynomics, EZ0054), gRT-PCR was performed with TCPreal™ gRCR 2× PreMIX (SYBR Green with low ROX) (Enzynomics, RT501M). GAPDH and beta-actin were used for RNA normalization. qRT-PCR was performed with a StepOne Plus (Applied Biosystems) instrument.

HBEC-KL cell line = assay: Matrigel invasion assay, HBEC-KL cell line
Method: (§1) For the 2D invasion assay, the inserts were pre-coated with 300 μg/ml Matrigel (Coming, 354234). After staining with […] dye (Bio-Rad, 1450013), 1×10^5 live cells per 8-um-pore cell-culture insert (Costar. 3422) were seeded in 0.5% ACL medium. 10% ACL medium was added to the outside of the insert. In the case of lung cancer and pancreatic cancer cell lines, after inoculation in 1% RPMI medium, 20% RPMI medium was added to the outside of the insert. Plates were incubated for 24 hours at 37° C. After incubation, the insert was fixed with 3.7% PFA, washed, stained with 0.4% crystal violet, and the upper membrane was washed and dried.

SNAI1 gene = assay: Real-time PCR of SNAI1 gene; details: HBEC-KL; 10 mM acetate, 24 hours
Method: After synthesizing complementary DNA (cDNA) using the TOPscript·8 cDNA synthesis kit (Enzynomics, EZ0054), gRT-PCR was performed with TCPreal™ gRCR 2× PreMIX (SYBR Green with low ROX) (Enzynomics, RT501M). GAPDH and beta-actin were used for RNA normalization. qRT-PCR was performed with a StepOne Plus (Applied Biosystems) instrument.

TFEB [1] = assay: Immunofluorescence of TFEB localization; details: HBEC-KL; 10 mM acetate 24 hours or 3 uM SAHA 5 hours
Method: Cells were seeded onto coated glass coverslips and maintained in ACL medium for 48 hours. After washing the cells three times with PBS. they were incubated in 3.7% paraformaldehyde for 10 minutes and fixed. Thereafter, the cells were washed three times with PBS and subjected to cell permeabilizaton in PBS containing 0.1% Triton X-100 for 10 minutes. After washing with PBS three times, the sample was blocked for 30 minutes at room temperature with PBS containing 0.1% Triton X-100 and 5% goat serum. Samples were incubated with primary antibody (1:150). followed by incubation with anti-rabbit/mouse Alexa Fluor 488/568 secondary antibody (Thermo Fisher Scientific, A-11001, 11004, 11008. 11011) and ProLong Gold Antifade Mountant with DAPI (Thermo Fisher Scientific, P36931), Images were taken with an Axio imager M2 microscope (Carl Zeiss, […]) equipped with a 63× oil objective and analyzed with ZEN version 3.0 software.

acetylated Snail = assay: Immunoprecipitation-immunoblot of acetylated Snail; details: HBEC-KL
Method: (§2) Cell lysates (1 μg protein) were incubated overnight at 4° C. on anti-FLAG® M2 Affinity Gel (Sigma, A2220) or anti-acetyl-lysine antibody coated agarose (ImmuneChem Pharmaceuticals, ICP0388). The immunoprecipitate was then washed three times in IP buffer, and the immunoprecipitated complex was dissolved and separated by boiling in IP buffer for 5 minutes.
For SDS-PAGE electrophoresis, the immunoprecipitated complex was transferred to a nitrocellulose membrane and the membrane was blocked and then incubated for 1 hour at room temperature with Primary antibody and secondary antibody (VeriBlot for IP Detection Reagent (HRP) (Abcam, #ab131366), and anti-mouse IgG tor IP (HRP) (Abeam, #ab131368)).
After washing 3 times, the membrane was incubated with the secondary antibody.

LC3 = assay: Autophagic flux (LC3 Western blot, mRFP-GFP-LC3 lysosomal delivery assay); details: HBEC-KL; 10 mM acetate 24 hours or 3 uM SAHA
Method: (§3) Representative GFP-LC3, RFP-LC3 and overlapping images are shown. In addition, red puncta (mRFP+/GFP−) and yellow puncta (mRFP+/GFP+) per cell were quantified and graphed (n=15 cells/treatment). Cells were harvested, washed with PBS, and lysed on ice with RIPA buffer containing protease and phophatase inhibitor cocktail (GenDEPOT). After 15 minutes of incubation, the cell lysates were centrifuged at 15,000 rpm at 4° C. for 10 minutes. Protein concentration was measured by Bradford assay (Bio-rad, 500-0006). Equal amounts of total protein were placed on an SDS gel electrophoresis and transferred to a PVDF membrane (Bio-rad). The membrane was blocked with 5% skim milk for 1 hour at room temperature and incubated overnight at 4° C. with primary antibody in a buffer containing 0.1% Tween-20. Subsequently, the membrane was washed three times with Tween-PBS buffer and incubated for 1 hour at room temperature using a secondary antibody diluted in blocking buffer containing 0.1% Tween-20. Subsequently, the membrane was washed three times for 10 minutes each using Tween-TBS. Densitometry of Western blots was measured using ImageJ software.

Snail [2] = assay: Western blot of Snail protein
Method: as §3, with “Cells” for “Representative GFP-LC3, RFP-LC3 and overlapping images are shown. In addition, red puncta (mRFP+/GFP−) and yellow puncta (mRFP+/GFP+) per cell were quantified and graphed (n=15 cells/treatment). Cells”
[…] For autophagy activation, cells were'treated with 2 μM rapamycin (Selleckchem, S1039) for 5 hours. Modulation of intracellular ROS was performed with N-acetyl-cysteine (10 mM) (Sigma, A7250), hydrogen peroxide solution (100 μM to 200 μM) (Sigma, 216763), or CDDO-ME NRF2 activator (50 nM, 100 nM) (Sellckchem, S8078) for 4 to 24 hours. Intercellular calcium signal control was performed for 1 hour using BAPTA-AM (20 μM) (Sigma, A1076) or Calmidazolium Chloride (2.5 μM) (Sigma, C3930). […] For TFEB protein phosphorylation, tacrolimus (1 μM) (Selleckchem, S5003) was treated for 1 hour. […] During siRNA treatment, each siRNA was treated to a concentration of 40 to 50 nM and treated together with Lipofectamine RNAiMax (Thermo Fisher Scientific, 13778150) for transformation, and were used for experiments 48 to 72 hours later. For cDNA treatment, each cDNA was treated to a concentration of 1 to 2 μg in a 6-well plate and treated with Lipofectamine 2000 (Thermo Fisher Scientific, 11668019) for transformation, and were used for experiments 24 hours later.

TFEB [3] = assay: Western blot / immunoprecipitation-immunoblot of TFEB (acetylated, phosphorylated, total); details: HBEC-KL; for reduced TFEB protein level in the chloroquine (CQ) treatment condition: 50 uM CQ 24 hours with 10 mM acetate 24 hours or 3 uM SAHA 15 hours; for acetylated TFEB level / phosphorylated TFEB level / total TFEB protein level: 10 mM acetate 24 hours or 3 μM SAHA
Method: FIG. 11J illustrates a diagram of immunoblot results of the […] a control (left), and the immunoprecipitation-immunoblot result of TFEB acetylated HBEC-KL cells under the same conditions (right) is also shown,
as §3, with “Cells” for “Representative GFP-LC3, RFP-LC3 and overlapping images are shown. In addition, red puncta (mRFP+/GFP−) and yellow puncta (mRFP+/GFP+) per cell were quantified and graphed (n=15 cells/treatment). Cells”
as §2, with “For immunoprecipitation, equal amounts of lysate and Co-IP buffer (40 mM HEPES, pH 7.4, 120 mM NaCl, 2 mM EDTA, 0.3% CHAPS (Sigma, 10810118001), 10 mM pyrophosphate (Sigma, 221368), 10 mM glycerophosphate (Sigma, G9422), 50 mM NaF, phosphatase and protease inhibitor mixture) were mixed. Cell” for “Cell”

phospho-RPS6 (p-S6) = assay: Western blot of phospho-RPS6 (p-S6); details: HBEC-KL; acetate or SAHA treatment
Method: as §3, with “Cells” for “Representative GFP-LC3, RFP-LC3 and overlapping images are shown. In addition, red puncta (mRFP+/GFP−) and yellow puncta (mRFP+/GFP+) per cell were quantified and graphed (n=15 cells/treatment). Cells”

Snail [4] = assay: Immunoprecipitation-immunoblot of phosphorylated/acetylated or K48 polyubiquitinated Snail in A549 cells; details: 25 uM C646 or 3 uM SAHA
Method: FIG. 9K illustrates the immunoprecipitation-immunoblot result of phosphorylated/acetylated or K48 polyubiquitinated Snail assay after transfection of wild-type Snail (pFLAG-Snail WT) or acetylation-defective Snail mutant (pFLAG-SnailK146R) into A549 cells and/or treatment with 25 uM C646.
FIG. 9L illustrates the immunoprecipitation-immunoblot results of the polyubiquitinated Snail assay after transfection of HA-ubiquitin and wild-type Snail (pFLAG-Snail WT) or acetylation-defective Snail mutant (pFLAG-SnailK146R) into A549 cells and/or treatment with 25 uM C646 for 2 hours (left) and/or treatment of 3 uM SAHA for 5 hours (right).
as §2, with “For immunoprecipitation, equal amounts of lysate and Co-IP buffer (40 mM HEPES, pH 7.4, 120 mM NaCl, 2 mM EDTA, 0.3% CHAPS (Sigma, 10810118001), 10 mM pyrophosphate (Sigma, 221368), 10 mM glycerophosphate (Sigma, G9422), 50 mM NaF, phosphatase and protease inhibitor mixture) were mixed. Cell” for “Cell”

Snail [5] = assay: Western blot of Snail protein; details: HBEC-KL
TFEB (CLEAR network) = assay: CLEAR motif-driven luciferase reporter assay; details: HBEC-KL
Method: To compare the TFEB reporter activity with other cell lines (HBEC30KT, HBEC-K, and HBEC-KL), the pGL4.70 5× CLEAR Rluc and pSt4.14 Fluc vectors were transiently co-transfected and normalized luciferase activity was measured in Dual-Measured by Luciferase® Reporter Assay System (Promega, E1910),

KL cell lines = assay: Matrigel invasion assay, KL cell lines; details: in two of the three KL cell lines; AMG-510 1 uM
Method: as §1

β-catenin = assay: Western blot of β-catenin; details: HBEC-KL; CHIR99021 3 uM, 5 hours, in the presence of 50 uM CQ
Method: as §3, with “FIG. 5K illustrates the expression level of Snail protein after treatment with the GSK3β inhibitor CHIR99021 (3 uM, treatment for 5 hours) in the presence of 50 uM chloroquine (CQ) in the HBEC-KL” for “Representative GFP-LC3, RFP-LC3 and overlapping images are shown. In addition, red puncta (mRFP+/GFP−) and yellow puncta (mRFP+/GFP+) per”, “line.” for “were quantified and graphed (n=15 cells/treatment).”

SMILES	TFEB mRNA level (TFEB gene)	level of nuclear-localized TFEB (TFEB [1])	autophagy flux (LC3)	reduced TFEB protein level in the chloroquine (CQ) treatment condition (TFEB [3])	acetylated TFEB level (TFEB [3])	phosphorylated TFEB level (TFEB [3])	total TFEB protein level (TFEB [3])	level of phospho-RPS6 (p-S6) (phospho-RPS6 (p-S6))	further results
CC(=O)[O-].[Na+] [acetate, sodium acetate]	no significant change	increased	increased	partially restored	increased	increased	increased	kept constant	invasiveness (HBEC-KL cell line; KL cells (HBEC-KL), 10 mM acetate, 24 hours): increased; Snail mRNA expression levels (SNAI1 gene): no effect; level of acetylated Snail (acetylated Snail; 10 mM acetate, 24 hours): increased; Snail protein expression levels (Snail [2]; HBEC-KL, acetate, 24 hours): increased
O=C(CCCCCCC(=O)Nc1ccccc1)NO [SAHA, vorinostat]	no significant change	increased	increased	partially restored	increased	increased	increased	kept constant	degree of matrigel-infiltration (HBEC-KL cell line; HBEC-KL, SAHA): increased; K48 polyubiquitination of wild-type Snail (Snail [4]; pFLAG-Snail WT): reduced; phosphorylation of wild-type Snail (Snail [4]; pFLAG-Snail WT): reduce; phosphorylation and acetylation of K146R Snail (Snail [4]; pFLAG-SnailK146R): did not affect; level of acetylated Snail (acetylated Snail; 3 uM SAHA, 15 hours): increased; Snail reduction by chloroquine (CQ), upon SAHA treatment (Snail [5]; 3 uM SAHA and 50 uM CQ, 24 hours): restored; CLEAR activity under FK506 treatment (TFEB (CLEAR network); 1 uM FK506 with 10 mM acetate 24 hours or 3 uM SAHA 15 hours): increased; CLEAR activity (TFEB (CLEAR network); 10 mM acetate 24 hours or 3 uM SAHA 5 hours): increased
C=CC(=O)N1CCN(c2nc(=O)n(-c3c(C)ccnc3C(C)C)c3nc(-c4c(O)cccc4F)c(F)cc23)[C@@H](C)C1 [AMG-510]									Snail expression level (Snail [2]; in two of the three KL cell lines, AMG-510 1 uM, 48 hours): increased; cell invasiveness (KL cell lines): increased
Cc1c[nH]c(-c2cnc(NCCNc3ccc(C#N)cn3)nc2-c2ccc(Cl)cc2Cl)n1 [CHIR99021]									levels of Snail protein under autophagy inhibition (Snail [5]; CHIR99021 3 uM, 5 hours, in the presence of 50 uM CQ): did not restore; expression levels of β-catenin under autophagy inhibition (β-catenin): restored
